How the values were obtained:
[1] = tested on: Chinese sprangletop; assay: Test Example 3: herbicidal effect by foliage application, Wagner pot (Table 18, symbol D); type: in vivo, chinese sprangletop (Leptochloa chinensis)
Description: (§1) [Test Example 3] Herbicidal Effect Test by Foliage Application After alluvial soil was placed into 1/10000 are of Wagner pot, water was poured and mixed to form a submerged condition having a water depth of 0.1 cm to 0.5 cm. Seeds of barnyard grass, Chinese sprangletop, rice flat sedge, and rice were sowed and the pot was placed in a greenhouse at 25° C. to 30° C. for growth of the plants. After 14-day growth of the plants, the emulsion agent of the compound of the present invention prepared according to Formulation Example 2 was diluted with water so as to achieve a predetermined herbicide amount, and the diluted emulsion agent was uniformly applied to a foliage part with a small-sized spray. Three weeks after the herbicide application, the effect of the herbicide on each plant was evaluated according to the criteria of Test Example 1.

[2] = tested on: barnyard grass; assay: Test Example 3: herbicidal effect by foliage application, Wagner pot (Table 18, symbol H); type: in vivo, barnyard grass (Echinochloa crus-galli)
Description: as §1

[3] = tested on: rice flat sedge; assay: Test Example 3: herbicidal effect by foliage application, Wagner pot (Table 18, symbol E); type: in vivo, rice flat sedge (Cyperus iria)
Description: as §1

[4] = tested on: green foxtail; assay: Test Example 5: herbicidal effect by foliage application, plastic box (Table 20, symbol G); type: in vivo, green foxtail (Setaria viridis); settings: foliage application, 320 g/ha, three weeks after application
Description: (§2) [Test Example 5] Herbicidal Effect Test by Foliage Application
(§3) Sterilized diluvial soil was placed in a plastic box having a length of 21 cm, a width of 13 cm, and a depth of 7 cm. The seeds of each of southern crabgrass, green foxtail, barnyard grass, wild oat, blackgrass, Italian ryegrass, windgrass, velvetleaf, redroot pigweed, lambsquarters, chickweed, false cleavers, persian speedwell, corn, soybean, rice, wheat, beet, and rapeseed were sowed in a spot-like manner and covered with the soil having a thickness of about 1.5 cm. Thereafter, the plants were grown in a greenhouse at 25° C. to 30° C. After 14-day growth of the plants, the emulsion agent of the compound of the present invention prepared according to Formulation Example 2 was diluted with water so as to achieve a predetermined herbicide amount, and the diluted emulsion agent was uniformly applied to a foliage part with a small-sized spray. Three weeks after the herbicide application, the effect of the herbicide on each plant was evaluated according to the criteria of Test Example 1.

[5] = tested on: velvetleaf; assay: Test Example 5: herbicidal effect by foliage application, plastic box (Table 20, symbol M); type: in vivo, velvetleaf (Abutilon theophrasti); settings: foliage application, 320 g/ha, three weeks after application
Description: as §2, §3

[6] = tested on: wild oat; assay: Test Example 5: herbicidal effect by foliage application, plastic box (Table 20, symbol I); type: in vivo, wild oat (Avena fatua); settings: foliage application, 320 g/ha, three weeks after application
Description: as §2, §3

[7] = tested on: Italian ryegrass; assay: Test Example 5: herbicidal effect by foliage application, plastic box (Table 20, symbol K); type: in vivo, Italian ryegrass (Lolium multiflorum); settings: foliage application, 320 g/ha, three weeks after application
Description: as §2, §3

[8] = tested on: persian speedwell; assay: Test Example 5: herbicidal effect by foliage application, plastic box (Table 20, symbol R); type: in vivo, Persian speedwell (Veronica persica); settings: foliage application, 320 g/ha, three weeks after application
Description: as §2, §3

[9] = tested on: southern crabgrass; assay: Test Example 5: herbicidal effect by foliage application, plastic box (Table 20, symbol F); type: in vivo, southern crabgrass (Digitaria ciliaris); settings: foliage application, 320 g/ha, three weeks after application
Description: as §2, §3

[10] = tested on: lambsquarters; assay: Test Example 5: herbicidal effect by foliage application, plastic box (Table 20, symbol O); type: in vivo, lambsquarters (Chenopodium album); settings: foliage application, 320 g/ha, three weeks after application
Description: as §2, §3

[11] = tested on: windgrass; assay: Test Example 5: herbicidal effect by foliage application, plastic box (Table 20, symbol L); type: in vivo, windgrass (Apera spica-venti); settings: foliage application, 320 g/ha, three weeks after application
Description: as §2, §3

[12] = tested on: barnyard grass; assay: Test Example 5: herbicidal effect by foliage application, plastic box (Table 20, symbol H); type: in vivo, barnyard grass (Echinochloa crus-galli); settings: foliage application, 320 g/ha, three weeks after application
Description: as §2, §3

[13] = tested on: blackgrass; assay: Test Example 5: herbicidal effect by foliage application, plastic box (Table 20, symbol J); type: in vivo, blackgrass (Alopecurus myosuroides); settings: foliage application, 320 g/ha, three weeks after application
Description: as §2, §3

[14] = amount of applied herbicide 320 g/ha
[15] = amount of applied herbicide 101 g/ha
[16] = amount of applied herbicide 125 g/ha

## CCCC(=O)Oc1c(C)nn(C)c(=O)c1-c1c(-c2ccc(OC)nc2OC)sc2ccccc12 [1-080]
[1]; 320 g/ha
  herbicidal effect on D (Chinese sprangletop), rating 0-5: 0 (Herbicidal rate of 5% or less (almost no effect))
[2]; 320 g/ha
  herbicidal effect on H (barnyard grass), rating 0-5: 0 (Herbicidal rate of 5% or less (almost no effect))
[3]; 320 g/ha
  herbicidal effect on E (rice flat sedge), rating 0-5: 4 (Herbicidal rate of 70% or more and less than 90%)

## COc1nn(C)c(=O)c(-c2c(-c3ccc(Oc4ccccc4)cc3)sc3ccccc23)c1O [1-164]
[1]; 80 g/ha
  herbicidal effect on D (Chinese sprangletop), rating 0-5: 4 (Herbicidal rate of 70% or more and less than 90%)
[2]; 80 g/ha
  herbicidal effect on H (barnyard grass), rating 0-5: 4 (Herbicidal rate of 70% or more and less than 90%)
[3]; 80 g/ha
  herbicidal effect on E (rice flat sedge), rating 0-5: 4 (Herbicidal rate of 70% or more and less than 90%)

## CCCC(=O)Oc1c(OC)nn(C)c(=O)c1-c1c(-c2ccoc2)sc2ccccc12 [1-191]
[1]; 80 g/ha
  herbicidal effect on D (Chinese sprangletop), rating 0-5: 5 (Herbicidal rate of 90% or more (almost completely withered))
[2]; 80 g/ha
  herbicidal effect on H (barnyard grass), rating 0-5: 2 (Herbicidal rate of 20% or more and less than 40%)
[3]; 80 g/ha
  herbicidal effect on E (rice flat sedge), rating 0-5: 4 (Herbicidal rate of 70% or more and less than 90%)

## Cc1ccc2sc(-c3ccc4ccccc4c3)c(-c3c(O)c(C)nn(C)c3=O)c2c1 [2-154]
[1]; [14]
  herbicidal effect on D: Chinese sprangletop: 0 (Herbicidal rate of 5% or less (almost no effect))
[2]; [14]
  herbicidal effect on H: barnyard grass: 3 (Herbicidal rate of 40% or more and less than 70%)
[3]; [14]
  herbicidal effect on E: rice flat sedge: 3 (Herbicidal rate of 40% or more and less than 70%)

## CCCC(=O)Oc1c(C)nn(C)c(=O)c1-c1c(-c2cc(C(F)(F)F)cc(C(F)(F)F)c2)sc2ccc(F)cc12 [2-359]
[1]; [14]
  herbicidal effect on D: Chinese sprangletop: 5 (Herbicidal rate of 90% or more (almost completely withered))
[2]; [14]
  herbicidal effect on H: barnyard grass: 3 (Herbicidal rate of 40% or more and less than 70%)
[3]; [14]
  herbicidal effect on E: rice flat sedge: 3 (Herbicidal rate of 40% or more and less than 70%)

## COc1cc(F)ccc1-c1sc2ccc(S(C)(=O)=O)cc2c1-c1c(O)c(C)nn(C)c1=O [2-377]
[1]; [15]
  herbicidal effect on D: Chinese sprangletop: 3 (Herbicidal rate of 40% or more and less than 70%)
[2]; [15]
  herbicidal effect on H: barnyard grass: 4 (Herbicidal rate of 70% or more and less than 90%)
[3]; [15]
  herbicidal effect on E: rice flat sedge: 3 (Herbicidal rate of 40% or more and less than 70%)

## CCn1nc(C)c(O)c(-c2c(-c3ccc(Cl)cc3)sc3ccc(F)cc23)c1=O [2-400]
[1]; [14]
  herbicidal effect on D: Chinese sprangletop: 5 (Herbicidal rate of 90% or more (almost completely withered))
[3]; [14]
  herbicidal effect on E: rice flat sedge: 5 (Herbicidal rate of 90% or more (almost completely withered))

## Cc1n[nH]c(=O)c(-c2c(-c3ccc(F)cc3)sc3ccc(F)cc23)c1O [2-428]
[1]; [16]
  herbicidal effect on D: Chinese sprangletop: 0 (Herbicidal rate of 5% or less (almost no effect))
[2]; [16]
  herbicidal effect on H: barnyard grass: 4 (Herbicidal rate of 70% or more and less than 90%)
[3]; [16]
  herbicidal effect on E: rice flat sedge: 0 (Herbicidal rate of 5% or less (almost no effect))

## Cc1nn(Cc2ccccc2)c(=O)c(-c2c(-c3ccc(Cl)cc3)sc3ccc(F)cc23)c1O [2-434]
[2]; [14]
  herbicidal effect on H: barnyard grass: 2 (Herbicidal rate of 20% or more and less than 40%)
[3]; [14]
  herbicidal effect on E: rice flat sedge: 2 (Herbicidal rate of 20% or more and less than 40%)

## Cc1nn(C)c(=O)c(-c2c(-c3ccc(OC(F)F)cc3)sc3c(C)cccc23)c1O [4-128]
[1]; 320 g/ha
  herbicidal effect on Chinese sprangletop (D): 0 (Herbicidal rate of 5% or less (almost no effect))
[2]; 320 g/ha
  herbicidal effect on barnyard grass (H): 3 (Herbicidal rate of 40% or more and less than 70%)
[3]; 320 g/ha
  herbicidal effect on rice flat sedge (E): 5 (Herbicidal rate of 90% or more (almost completely withered))

## Cc1nn(C)c(=O)c(-c2c(-c3ccc(C(=O)O)cc3)sc3cc(F)c(F)cc23)c1O [5-027]
[1]; 320 g/ha
  herbicidal effect on Chinese sprangletop (D): 0 (Herbicidal rate of 5% or less (almost no effect))
[2]; 320 g/ha
  herbicidal effect on barnyard grass (H): 3 (Herbicidal rate of 40% or more and less than 70%)
[3]; 320 g/ha
  herbicidal effect on rice flat sedge (E): 0 (Herbicidal rate of 5% or less (almost no effect))

## CCCC(=O)Oc1c(C)nn(C)c(=O)c1-c1c(-c2ccc(OC)c(OC)c2)sc2cc(OC)c(OC)cc12 [5-063]
[4]
  herbicidal effect on green foxtail (G): 0 (Herbicidal rate of 5% or less (almost no effect))
[1]; 320 g/ha
  herbicidal effect on Chinese sprangletop (D): 0 (Herbicidal rate of 5% or less (almost no effect))
[5]
  herbicidal effect on velvetleaf (M): 0 (Herbicidal rate of 5% or less (almost no effect))
[6]
  herbicidal effect on wild oat (I): 0 (Herbicidal rate of 5% or less (almost no effect))
[2]; 320 g/ha
  herbicidal effect on barnyard grass (H): 3 (Herbicidal rate of 40% or more and less than 70%)
[7]
  herbicidal effect on Italian ryegrass (K): 1 (Herbicidal rate of 5% or more and less than 20%)
[3]; 320 g/ha
  herbicidal effect on rice flat sedge (E): 2 (Herbicidal rate of 20% or more and less than 40%)
[8]
  herbicidal effect on persian speedwell (R): 0 (Herbicidal rate of 5% or less (almost no effect))
[9]
  herbicidal effect on southern crabgrass (F): 0 (Herbicidal rate of 5% or less (almost no effect))
[10]
  herbicidal effect on lambsquarters (O): 0 (Herbicidal rate of 5% or less (almost no effect))
[11]
  herbicidal effect on windgrass (L): 0 (Herbicidal rate of 5% or less (almost no effect))
[12]
  herbicidal effect on barnyard grass (H): 0 (Herbicidal rate of 5% or less (almost no effect))
[13]
  herbicidal effect on blackgrass (J): 0 (Herbicidal rate of 5% or less (almost no effect))

## CCOc1cc(F)ccc1-c1cc2c(-c3c(O)c(C)nn(C)c3=O)c(-c3ccc(F)cc3OCC)sc2cc1OC [5-081]
[1]; 320 g/ha
  herbicidal effect on Chinese sprangletop (D): 2 (Herbicidal rate of 20% or more and less than 40%)
[2]; 320 g/ha
  herbicidal effect on barnyard grass (H): 2 (Herbicidal rate of 20% or more and less than 40%)
[3]; 320 g/ha
  herbicidal effect on rice flat sedge (E): 0 (Herbicidal rate of 5% or less (almost no effect))

## Cc1cc2sc(-c3ccc(C(F)(F)F)cc3)c(-c3c(O)c(C)nn(C)c3=O)c2cc1C [5-096]
[1]; 320 g/ha
  herbicidal effect on Chinese sprangletop (D): 2 (Herbicidal rate of 20% or more and less than 40%)
[2]; 320 g/ha
  herbicidal effect on barnyard grass (H): 3 (Herbicidal rate of 40% or more and less than 70%)
[3]; 320 g/ha
  herbicidal effect on rice flat sedge (E): 2 (Herbicidal rate of 20% or more and less than 40%)

## Cc1cc2sc(-c3ccc(C#N)cc3)c(-c3c(O)c(C)nn(C)c3=O)c2cc1C [5-100]
[4]
  herbicidal effect on green foxtail (G): 0 (Herbicidal rate of 5% or less (almost no effect))
[5]
  herbicidal effect on velvetleaf (M): 0 (Herbicidal rate of 5% or less (almost no effect))
[6]
  herbicidal effect on wild oat (I): 0 (Herbicidal rate of 5% or less (almost no effect))
[7]
  herbicidal effect on Italian ryegrass (K): 0 (Herbicidal rate of 5% or less (almost no effect))
[8]
  herbicidal effect on persian speedwell (R): 2 (Herbicidal rate of 20% or more and less than 40%)
[9]
  herbicidal effect on southern crabgrass (F): 0 (Herbicidal rate of 5% or less (almost no effect))
[10]
  herbicidal effect on lambsquarters (O): 0 (Herbicidal rate of 5% or less (almost no effect))
[11]
  herbicidal effect on windgrass (L): 0 (Herbicidal rate of 5% or less (almost no effect))
[12]
  herbicidal effect on barnyard grass (H): 0 (Herbicidal rate of 5% or less (almost no effect))
[13]
  herbicidal effect on blackgrass (J): 0 (Herbicidal rate of 5% or less (almost no effect))

## Cc1ccc(-c2oc3ccc(F)cc3c2-c2c(O)c(C)nn(C)c2=O)cc1 [9-017]
[1]; [14]
  Herbicidal effect on D (Chinese sprangletop), foliage application: 3 (Herbicidal rate of 40% or more and less than 70%)
[2]; [14]
  Herbicidal effect on H (barnyard grass), foliage application: 5 (Herbicidal rate of 90% or more (almost completely withered))
[3]; [14]
  Herbicidal effect on E (rice flat sedge), foliage application: 5 (Herbicidal rate of 90% or more (almost completely withered))

## Cc1nn(C)c(=O)c(-c2c(-c3ccc(C(F)(F)F)cc3)oc3ccc(F)cc23)c1O [9-029]
[1]; [14]
  Herbicidal effect on D (Chinese sprangletop), foliage application: 3 (Herbicidal rate of 40% or more and less than 70%)
[2]; [14]
  Herbicidal effect on H (barnyard grass), foliage application: 4 (Herbicidal rate of 70% or more and less than 90%)
[3]; [14]
  Herbicidal effect on E (rice flat sedge), foliage application: 5 (Herbicidal rate of 90% or more (almost completely withered))
